This note sets out measurements from BindingDB's records for doi:10.7270/Q2PR7TDC (Burnham Center For Chemical Genomics, 2010).

Some results are limits rather than exact numbers.

The nature of this experiment: analog potency on TNFa NF-kB signaling – cell-based, revised, SAR follow-up (AID 2337).
The molecule `Cc1ccc(O)c(/N=C/C2=CC(Cc3ccccc3)C=C([N+](=O)[O-])C2=O)c1` (stereo not drawn) [(6E)-6-[[(5-methyl-2-oxidanyl-phenyl)amino]methylidene]-2-nitro-4-(phenylmethyl)cyclohexa-2,4-dien-1-one] displayed an IC50 of more than 20 µM. Molecule `N#CC(C(=O)COC(=O)CSc1ccc(Cl)cc1)c1nc2ccccc2[nH]1` (stereo not drawn) [MLS-0208254.0001] registered an IC50 of more than 20 µM. For `Cc1ccc(C)c(SCC(=O)OCC(=O)C(C#N)c2nc3ccccc3[nH]2)c1` (stereo not drawn) [MLS000392255] the value was more than 20 µM; for `Cc1cc(SCC(=O)OCC(=O)C(C#N)c2nc3ccccc3[nH]2)c(C)cc1Br` (stereo not drawn), more than 20 µM; for `Cc1cc(Br)ccc1SCC(=O)OCC(=O)C(C#N)c1nc2ccccc2[nH]1` (stereo not drawn) [2-[(4-bromo-2-methylphenyl)thio]acetic acid [3-cyano-3-(1,3-dihydrobenzimidazol-2-ylidene)-2-oxopropyl] ester], more than 20 µM.

In turn, `N#CC(C(=O)COC(=O)CSc1ccc2ccccc2c1)c1nc2ccccc2[nH]1` (stereo not drawn) [[3-cyano-3-(1,3-dihydrobenzimidazol-2-ylidene)-2-oxopropyl] 2-naphthalen-2-ylsulfanylacetate] displayed an IC50 of more than 20 µM. Turning to `CCOC1=CC=CC(C=NNC(=S)Nc2ccccc2[N+](=O)[O-])C1=O` (stereo not drawn) [MLS-0270696.0001], the IC50 came out at 0.414 µM. `CCCOC1=CC(=O)C(C=NNC(=S)Nc2ccccc2[N+](=O)[O-])C=C1` (stereo not drawn) [1-(2-nitrophenyl)-3-[[(E)-(6-oxo-4-propoxy-1-cyclohexa-2,4-dienylidene)methyl]amino]thiourea] had an IC50 of 0.88 µM.
